The values that follow come from PMC2810230, “Antiplasmodial Activities of Homogentisic Acid Derivative Protein Kinase Inhibitors Isolated from a Vanuatu Marine Sponge Pseudoceratina sp” (Marine Drugs, 2009).

Like-named read-outs stand apart in the source and are kept apart here.

One test has as its system Staphylococcus aureus. As to the kind of experiment: Antibacterial disc growth inhibition test, S. aureus. In kind it is cell-based.
Another test has as its target Pfnek-1 (Plasmodium falciparum, UniProt Q8I5D5). As to the kind of experiment: Pfnek-1 protein kinase assay (33P incorporation in β-casein). In kind it is biochemical. As to the method: A GST-Pfnek-1 fusion protein was purified from the Escherichia coli BL21 strain carrying a Pfnek-1 expression plasmid harbouring an ampicillin resistance cassette (bacteria kindly provided by D. Dorin, INSERM 511) as described by Dorin et al.. Pfnek-1 kinase activity was determined by measuring the ^33P incorporation in ß-caseine using γ[^33P]-ATP.
Briefly, test compounds were dissolved in DMSO and diluted in 20 mM Tris, pH 7.5 20 mM MgCl2, 10 mM NaF and 10 mM ATP. β-casein (3 mg/mL) and γ[^33P]-ATP were added prior to the addition of Pfnek-1 to start the kinase reaction. Approximately 5 μCi of γ[^33P]-ATP was used per reaction. After incubation at 30 °C for 30 min, each solution was blotted on a phosphocellulose filter paper (P81 Whatman-cation exchange chromatography paper). After four washes with 1% H3PO4 at, the remaining radioactivity was measured using a liquid scintillation analyzer Packard 1600TR. The IC50 is defined as the concentration of compound which inhibits 50% of enzyme activity compared to the control (reaction in the absence of inhibitor).

In another test the test system is Escherichia coli. As to the kind of experiment: Antibacterial disc growth inhibition test, E. coli. The test is classed as cell-based. As to the method:
Activity was evaluated by the standard […] with human pathogenic Staphylococcus aureus and Escherichia coli at 100 μg/disc for a disc of 6 mm diameter (Table 3). […] Bromotyrosine metabolites have already been reported as antibacterials.

The subject of test [1] is chloroquine-resistant Plasmodium falciparum strain FcB1. As to the kind of experiment: Activity against erythrocytic stages of cultured P. falciparum (LDH assay). In kind it is cell-based. As to conditions: for IC50: read-out: FCB1 of P. falciparum IC50; for Antiplasmodial activity against FcB1 P. falciparum (in words): in vitro. As to the method:
The antiplasmodial activity was studied in vitro against the chloroquine-resistant Plasmodium falciparum strain FcB1 by a micromethod using the lactate deshydrogenase (LDH) assay (Makler and Hinrichs). Parasites were cultivated using the method of Trager and Jensen. Erythrocytes infected with P. falciparum (ring stage, 1% of parasitaemia) were re-suspended in complete culture medium at a haematocrit of 1.5%. The suspension was distributed in 96-well microtitre plates (200 μL per well). Drug testing was performed in triplicate. For each assay, a parasite culture was incubated with the drug for 48 h in 5% CO2 at 95% relative humidity, and frozen until the biochemical assay could be run. After defrosting, a 20 μL sub-sample of the contents of each well was mixed with 100 μL of a substrate solution containing 20 mg/mL of lithium L-lactate (Sigma), 5.5 mg/mL of TRIS (Sigma), and 3.7 mg/mL of 3-acetylpyridine adenine dinucleotide (APAD; Sigma), in the well of another microtitre plate. After incubation for 30 min, 25 μL of a mixture of NBT (1.6 mg/mL; Sigma) and PES (0.1 mg/mL; Sigma) were added to each well. After a further 35 min of incubation, the reaction was stopped by the addition of 25% acetic acid (25 μL per well). Accumulation of the reduced form of APAD was measured at λ = 650 nm, using a spectrophotometer (microplate reader, Metertech). IC50 values were determined graphically in a concentration versus percent inhibition curve.

Test [2] shares this test system. More on the design: method as in PMID 15124089. The note with it: isolated from leaves of Glossocalyx brevipes; cited from earlier work.
Setting [3] is: 100 μg/disc, disc of 6 mm diameter.
Where [4] appears, read: GST-Pfnek-1, β-casein substrate, 30 °C, 30 min.
Where [5] appears, read: Plasmodium falciparum, FcB1 strain, 48 h incubation, LDH readout.
Where [6] appears, read: FcB1 strain, 48 h incubation, LDH readout.

One may read the IC50 as the concentration that gives 50% inhibition.

Chain of Pfnek-1 (Q8I5D5 entry or part of it): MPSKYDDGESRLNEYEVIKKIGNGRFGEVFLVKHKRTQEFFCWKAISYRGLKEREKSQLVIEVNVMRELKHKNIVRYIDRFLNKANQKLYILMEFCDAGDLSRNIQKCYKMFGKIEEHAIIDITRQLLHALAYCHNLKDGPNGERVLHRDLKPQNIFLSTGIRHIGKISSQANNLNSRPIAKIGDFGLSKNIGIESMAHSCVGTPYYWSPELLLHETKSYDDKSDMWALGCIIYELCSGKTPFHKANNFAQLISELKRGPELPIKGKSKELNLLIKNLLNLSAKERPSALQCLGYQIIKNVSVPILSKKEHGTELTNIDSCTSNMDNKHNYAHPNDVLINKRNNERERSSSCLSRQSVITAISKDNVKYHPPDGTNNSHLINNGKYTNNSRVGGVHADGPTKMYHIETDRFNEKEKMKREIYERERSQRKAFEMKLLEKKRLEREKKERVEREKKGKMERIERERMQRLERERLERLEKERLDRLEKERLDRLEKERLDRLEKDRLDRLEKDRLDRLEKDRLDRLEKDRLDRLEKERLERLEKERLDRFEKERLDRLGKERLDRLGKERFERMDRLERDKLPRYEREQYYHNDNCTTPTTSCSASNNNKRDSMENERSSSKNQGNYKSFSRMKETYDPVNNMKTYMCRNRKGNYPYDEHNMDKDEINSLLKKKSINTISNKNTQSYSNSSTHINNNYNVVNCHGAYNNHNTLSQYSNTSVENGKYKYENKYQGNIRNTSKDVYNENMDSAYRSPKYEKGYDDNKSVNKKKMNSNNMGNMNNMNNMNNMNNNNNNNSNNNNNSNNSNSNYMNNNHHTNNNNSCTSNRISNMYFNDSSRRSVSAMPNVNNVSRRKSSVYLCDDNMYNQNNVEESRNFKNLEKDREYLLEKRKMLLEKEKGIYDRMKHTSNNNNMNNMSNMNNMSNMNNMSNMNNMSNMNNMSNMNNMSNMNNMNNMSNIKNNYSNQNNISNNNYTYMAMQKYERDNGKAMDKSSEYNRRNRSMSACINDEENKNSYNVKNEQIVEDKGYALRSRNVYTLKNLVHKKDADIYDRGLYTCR

With `COC1=C(Br)[C@H](O)[C@@]2(C=C1Br)CC(C(=O)NCCCOc1c(Br)cc(CCNC(=O)C3=NO[C@]4(C=C(Br)C(OC)=C(Br)[C@@H]4O)C3)cc1Br)=NO2`, the “Antibacterial activity against S. aureus (in words)” value with Staphylococcus aureus (100 μg/disc) is on record as “strong antibacterial activities”. Also, the “Growth inhibition diameter, S. aureus” value in the test with Staphylococcus aureus (setting [3]) is 14 mm. For the same molecule, at Pfnek-1, the “Pfnek-1 inhibitory activity (in words)” value was “inactive”. The IC50 was over 50 µM against Pfnek-1 (setting [4]) and over 100 µM in test [1] (Plasmodium falciparum, FCB1, 48 h). For the same molecule, in the test with Escherichia coli (100 μg/disc), the “Antibacterial activity against E. coli (in words)” value is “strong antibacterial activities”. In the test with Escherichia coli (setting [3]), the “Growth inhibition diameter, E. coli” value was found to be 16 mm.
As to `CC(C)=CCCC(C)=CCC1(CC(=O)O)CC(O)C=CC1=O` (stereo not drawn) [2-(1′β-geranyl-5′β-hydroxy-2′-oxocyclohex-3′-enyl)acetic acid], the “Activity against P. falciparum (in words)” value in test [2] is listed as “modest activities”.
Turning to `COC1=C(Br)[C@H](O)[C@@]2(C=C1Br)CC(C(=O)NCCCOc1c(Br)cc(C(O)CNC(=O)C3=NO[C@]4(C=C(Br)C(OC)=C(Br)[C@@H]4O)C3)cc1Br)=NO2` (stereo partly shown) [Compound 2, 11-deoxyfistularin-3], the “Growth inhibition diameter, S. aureus” value with Staphylococcus aureus (setting [3]) amounted to 0 mm. In addition, the “Pfnek-1 inhibitory activity (in words)” value on Pfnek-1 was “inactive”. For the same molecule, the IC50 against Pfnek-1 (setting [4]) is over 50 µM; in test [1] (setting [5]) it was over 100 µM. Further, the “Growth inhibition diameter, E. coli” value with Escherichia coli (setting [3]) amounted to 0 mm.
As to `COC(=O)Cc1c(O)cc(Br)c(O)c1Br` [Compound 4a, Methyl (2,4-dibromo-3,6-dihydroxyphenyl)acetate], in the test with Staphylococcus aureus (100 μg/disc), the “Antibacterial activity against S. aureus (in words)” value was “inactive”. In the test with Staphylococcus aureus (setting [3]), the “Growth inhibition diameter, S. aureus” value was determined as 0 mm. Moreover, at Pfnek-1, the “Pfnek-1 activity of 4a relative to 4b” value is listed as “five times more active” and the “Pfnek-1 inhibitory activity (in words)” value is on record as “most active”. Further, at Pfnek-1 (setting [4]), the IC50 was about 1.8 µM. Also, in the test with Escherichia coli (100 μg/disc), the “Antibacterial activity against E. coli (in words)” value was “inactive”. In addition, in the test with Escherichia coli (setting [3]), the “Growth inhibition diameter, E. coli” value turned out to be 0 mm. Also, the IC50 in test [1] (setting [5]) stood at 12 µM. The “Antiplasmodial activity against FcB1 P. falciparum (in words)” value in test [1] is reported as “moderately active”.
On to `COC(=O)Cc1cc(O)c(Br)cc1O` [Compound 4b, Methyl (4-bromo-3,6-dihydroxyphenyl)acetate], for which, on Pfnek-1, the “Pfnek-1 inhibitory activity (in words)” value is “moderately active”. Besides, the IC50 at Pfnek-1 (setting [4]) was 10 µM; in test [1] (setting [5]), 26 µM.
Take `O=C1Cc2cc(O)ccc2O1` [Compound 5, 5-Hydroxy-3H-benzofuran-2-one]: the IC50 against Pfnek-1 is over 50 µM; in test [1] (setting [5]), 29 µM.
With `O=C1Cc2c(cc(Br)c(O)c2Br)O1` [Compound 6a, 4,6-Dibromo-5-hydroxy-3H-benzofuran-2-one], the “Pfnek-1 inhibitory activity (in words)” value on Pfnek-1 is given as “inactivity”. In addition, the figures for the IC50 (on Pfnek-1 (setting [4]); in test [1] (setting [5])) were over 50 µM and 35 µM, respectively.
Taken in the same sequence, the figures for `O=C1Cc2cc(O)c(Br)cc2O1` [Compound 6b, 6-bromo-5-hydroxy-3H-benzofuran-2-one] were “inactivity”, over 50 µM and 17 µM.
On to `COC(=O)Cc1cc(O)ccc1O` [Compound 8, Methyl (2,5-dihydroxyphenyl)acetate], for which the “Pfnek-1 inhibitory activity (in words)” value on Pfnek-1 was “inactive”. Further, the figures for the IC50 (against Pfnek-1 (setting [4]); in test [1] (setting [5])) were over 50 µM and 36 µM, respectively.
In the case of `COC(=O)Cc1cc(Br)c(O)c(Br)c1O` [Compound 12, Methyl (3,5-dibromo-2,4-dihydroxyphenyl)acetate], on Pfnek-1, the “Pfnek-1 inhibitory activity (in words)” value is “inactive”. Besides, the IC50 at Pfnek-1 (setting [4]) was over 50 µM; in test [1] (setting [5]) it was over 100 µM. In test [1], the “Antiplasmodial activity against FcB1 P. falciparum (in words)” value is “inactive”.
Take `O=C(N[C@H](CO)[C@H](O)c1ccc([N+](=O)[O-])cc1)C(Cl)Cl` [chloramphenicol, reference compound]: the “Growth inhibition diameter, E. coli” value in the test on Escherichia coli (30 μg/disc) is on record as 17 mm.
Regarding `COC(=O)CC1(CC=C(C)CCC=C(C)C)CC(O)C=CC1=O` (stereo not drawn) [methyl 2-(1′β-geranyl-5′β-hydroxy-2′-oxocyclohex-3-enyl)acetate], the “Activity against P. falciparum (in words)” value in test [2] is recorded as “modest activities”.
For “Methyl (3,6-dibenzoyl-2,4-dibromophenyl)acetate [Compound 13a]”, the “Pfnek-1 inhibitory activity (in words)” value on Pfnek-1 is on record as “inactivity”. In addition, the IC50 on Pfnek-1 (setting [4]) is over 50 µM; in test [1] (setting [6]) it was 22.5 µM.
For “Methyl (3,6-dibenzoyl-4-bromophenyl)acetate [Compound 13b]” the same measures were “inactivity”, over 50 µM and 13 µM.
On to gentamycin [reference compound], for which the “Growth inhibition diameter, S. aureus” value in the test with Staphylococcus aureus (10 μg/disc) amounted to 16 mm.
